According to PubChem BioAssay (NCI):
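Each compound was tested at five concentrations against cells in 96-well plates for 48 hours. Abbreviation: GI50, concentration required for 50% inhibition of growth. TGI denotes the concentration required for complete inhibition of growth.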

Key:
Test in all cases: growth of human tumour cells (NCI), 48 h
[1] = tested on: SF-295 CNS
[2] = tested on: NCI-H460 lung
[3] = tested on: OVCAR-8 ovarian
[4] = tested on: LOX IMVI melanoma
[5] = tested on: MCF7 breast
[6] = tested on: U251 CNS
[7] = tested on: K-562 leukemia
[8] = tested on: OVCAR-5 ovarian
[9] = tested on: COLO 205 colon
[10] = tested on: SNB-75 CNS
[11] = tested on: BT-549 breast
[12] = tested on: HS 578T breast
[13] = tested on: NCI-H522 lung
[14] = tested on: NCI/ADR-RES ovarian
[15] = tested on: SF-268 CNS
[16] = tested on: A549 NSCLC
[17] = tested on: CCRF-CEM leukemia
[18] = tested on: SK-MEL-5 melanoma
[19] = tested on: MALME-3M melanoma
[20] = tested on: MDA-MB-468 breast
[21] = tested on: HOP-92 NSCLC
[22] = tested on: RXF 393 renal
[23] = tested on: OVCAR-4 ovarian
[24] = tested on: HCT-116 colon
[25] = tested on: SK-OV-3 ovarian
[26] = tested on: M14 melanoma
[27] = tested on: SK-MEL-28 melanoma
[28] = tested on: NCI-H23 lung
[29] = tested on: UACC-257 melanoma
[30] = tested on: SNB-19 CNS
[31] = tested on: KM12 colon
[32] = tested on: MDA-MB-231 breast
[33] = tested on: DU-145 prostate
[34] = tested on: NCI-H226 lung
[35] = tested on: TK-10 renal
[36] = tested on: EKVX NSCLC
[37] = tested on: SK-MEL-2 melanoma
[38] = tested on: HCT-15 colon
[39] = tested on: CAKI-1 renal
[40] = tested on: PC-3 prostate
[41] = tested on: MDA-MB-435
[42] = tested on: HT29 colon
[43] = tested on: HL-60(TB) leukemia
[44] = tested on: SN12C renal
[45] = tested on: SW-620 colon
[46] = tested on: SR leukemia
[47] = tested on: RPMI-8226 leukemia
[48] = tested on: HOP-62 NSCLC
[49] = tested on: UO-31 renal
[50] = tested on: T-47D breast
[51] = tested on: OVCAR-3 ovarian
[52] = tested on: UACC-62 melanoma
[53] = tested on: MOLT-4 leukemia
[54] = tested on: SF-539 CNS
[55] = tested on: A498 renal
[56] = tested on: 786-0 renal
[57] = tested on: HCC-2998 colon
[58] = tested on: IGROV1 ovarian
[59] = tested on: ACHN renal

## CCCCCc1ccc(S(=O)(=O)N(C(C)=O)c2cc(-c3csc(N(C)C(C)=O)n3)ccc2N2CCN(C)CC2)cc1
[1]
  GI50: 2.56 µM
  TGI: 10.2 µM
[2]
  GI50: 1.7 µM
  TGI: 6.22 µM
[3]
  GI50: 9.42 µM
  TGI: 19.5 µM
[4]
  GI50: 1.01 µM
  TGI: 1.9 µM
[5]
  GI50: 2.22 µM
  TGI: 8.7 µM
[6]
  GI50: 7.12 µM
  TGI: 14.7 µM
[7]
  GI50: 1.53 µM
  TGI: 59.3 µM
[8]
  GI50: 8.44 µM
  TGI: 16.2 µM
[9]
  GI50: 6.54 µM
  TGI: 15.5 µM
[10]
  GI50: 6.47 µM
  TGI: 14.2 µM
[11]
  GI50: 8.89 µM
  TGI: 17.9 µM
[12]
  GI50: 8.77 µM
  TGI: 25.6 µM
[13]
  GI50: 8.69 µM
  TGI: 17.3 µM
[14]
  GI50: 8.01 µM
  TGI: 17.3 µM
[15]
  GI50: 7.35 µM
  TGI: 18 µM
[16]
  GI50: 6.37 µM
  TGI: 13.8 µM
[17]
  GI50: 3.63 µM
  TGI: 13.7 µM
[18]
  GI50: 7.04 µM
  TGI: 14.4 µM
[19]
  GI50: 7.61 µM
  TGI: 15.3 µM
[20]
  GI50: 2.99 µM
  TGI: 11.9 µM
[21]
  GI50: 5.97 µM
  TGI: 16 µM
[22]
  GI50: 3.99 µM
  TGI: 13.3 µM
[23]
  GI50: 9.87 µM
  TGI: 23.6 µM
[24]
  GI50: 2.17 µM
  TGI: 8.36 µM
[25]
  GI50: 9.9 µM
  TGI: 18.1 µM
[26]
  GI50: 3.25 µM
  TGI: 12.2 µM
[27]
  GI50: 7.98 µM
  TGI: 15.6 µM
[28]
  GI50: 8.92 µM
  TGI: 17.3 µM
[29]
  GI50: 7.51 µM
  TGI: 15.5 µM
[30]
  GI50: 8.81 µM
  TGI: 16.6 µM
[31]
  GI50: 7.83 µM
  TGI: 17.2 µM
[32]
  GI50: 4.01 µM
  TGI: 11.8 µM
[33]
  GI50: 7.52 µM
  TGI: 15.4 µM
[34]
  GI50: 10.6 µM
  TGI: 24.1 µM
[35]
  GI50: 9.62 µM
  TGI: 17.9 µM
[36]
  GI50: 7.7 µM
  TGI: 15.8 µM
[37]
  GI50: 10.2 µM
  TGI: 19 µM
[38]
  GI50: 2.13 µM
  TGI: 8.02 µM
[39]
  GI50: 6.19 µM
  TGI: 13.6 µM
[40]
  GI50: 6.48 µM
  TGI: 16.3 µM
[41]
  GI50: 2.97 µM
  TGI: 11.4 µM
[42]
  GI50: 2.11 µM
  TGI: 7.89 µM
[43]
  GI50: 1.57 µM
  TGI: 6.24 µM
[44]
  GI50: 7.7 µM
  TGI: 16.2 µM
[45]
  GI50: 1.51 µM
  TGI: 5.99 µM
[46]
  GI50: 1.23 µM
  TGI: 4.07 µM
[47]
  GI50: 4.61 µM
  TGI: 19.1 µM
[48]
  GI50: 8.71 µM
  TGI: 17 µM
[49]
  GI50: 7.22 µM
  TGI: 14.6 µM
[50]
  GI50: 7.66 µM
  TGI: 18 µM
[51]
  GI50: 6.4 µM
  TGI: 15.1 µM
[52]
  GI50: 9.44 µM
  TGI: 17.4 µM
[53]
  GI50: 2.31 µM
  TGI: 11.1 µM
[54]
  GI50: 7.18 µM
  TGI: 14.5 µM
[55]
  GI50: 8.43 µM
  TGI: 16.2 µM
[56]
  GI50: 4.46 µM
  TGI: 13.5 µM
[57]
  GI50: 6 µM
  TGI: 13.2 µM
[58]
  GI50: 9.04 µM
  TGI: 16.9 µM
[59]
  GI50: 8.86 µM
  TGI: 16.7 µM
